{"source": "ChEMBL document CHEMBL1201862", "about": "“PubChem BioAssay data set” (2004)", "key": {"[1]": {"experiment": "HEp-2 cell cytotoxicity, dose response, cytotoxicity control for RSV inhibitor project, HTS (AID 2410)", "format": "functional", "details": "human respiratory syncytial virus"}, "[2]": {"experiment": "Luminescence Cell-Based Dose Retest to Confirm Inhibitors of Cancer Stem Cells. [Related pubchem assays (depositor defined):AID2717, AID2721]", "format": "functional", "details": "Homo sapiens"}, "cells": {"experiment": "cells", "format": "functional"}, "P388/ADR": {"system": "P388/ADR", "experiment": "cells", "format": "functional", "details": "Mus musculus"}, "SN12K1": {"system": "SN12K1", "experiment": "cells", "format": "functional", "details": "Homo sapiens, SN12K1"}, "P388": {"system": "P388", "experiment": "cells", "format": "functional", "details": "Mus musculus, P388"}, "H9c2": {"system": "H9c2", "experiment": "cells", "format": "functional, cell-based", "details": "Rattus norvegicus, H9c2, Myocardium"}, "[3]": {"experiment": "C. albicans growth with fluconazole, confirmation, fluorescence, retest (AID 2467)", "format": "functional, cell-based"}, "[4]": {"experiment": "P. falciparum Dd2 growth inhibitors, dose response, SYBR Green, cherry-picked samples (AID 1159567)", "format": "functional, cell-based"}, "[5]": {"experiment": "microbe, parasite or virus in culture", "format": "functional", "details": "Mycobacterium tuberculosis"}}, "note": "The source made the active and inactive calls.", "data": [{"smiles": "S=C(Nc1ccccc1Cl)N1CCCC(c2ccccc2)=N1", "values": [{"measurement": "CC50", "setting": "[1]", "value": "25.1 µM (active)"}, {"measurement": "AC50", "setting": "[2]", "value": "4.35 µM (active)"}]}, {"smiles": "COc1ccc(OC(=O)CCc2c[nH]c3ccccc23)cc1", "values": [{"measurement": "IC50", "setting": "cells", "value": "0.48 µM (active)"}]}, {"smiles": "CSc1nc(NC2OC(CO)C(O)C(O)C2O)c(N)c(=O)n1C", "note": "(stereo not given)", "values": [{"measurement": "GI50", "setting": "P388/ADR", "value": "> 100 µM (inactive)"}, {"measurement": "GI50", "setting": "SN12K1", "value": "> 100 µM (inactive)"}, {"measurement": "GI50", "setting": "P388", "value": "> 100 µM (inactive)"}]}, {"smiles": "COc1ccccc1-c1sc2ccccc2c1C#CC1(O)CCCCC1", "values": [{"measurement": "AC50", "setting": "[2]", "value": "5.11 µM (active)"}]}, {"smiles": "CC(C)NC(=O)COC(=O)Cn1[nH]c(=O)c2ccccc2c1=O", "values": [{"measurement": "IC50", "setting": "H9c2", "value": "16.4 µM (active)"}]}, {"smiles": "O=C(COc1ccccc1)Nc1nnc(-c2ccc3c(c2)CCCC3)o1", "values": [{"measurement": "EC50", "setting": "[3]", "value": "0.499 µM (active)"}, {"measurement": "IC50", "setting": "cells", "value": "10.3 µM (active)"}]}, {"smiles": "Clc1cccc(CNCCNCc2cccc(Cl)c2)c1", "values": [{"measurement": "IC50", "setting": "cells", "value": "20.5 µM (active)"}]}, {"smiles": "COc1ccc(OC)c(/C=N/NC(=O)c2cc3c(OC)c(OC)ccc3[nH]2)c1", "values": [{"measurement": "IC50", "setting": "H9c2", "value": "> 79 µM (inactive)"}]}, {"smiles": "CCCNC(=O)N1[C@@H](C#N)[C@H](c2ccccc2-c2ccccc2F)[C@@H]1CO", "values": [{"measurement": "AC50", "setting": "[4]", "value": "18.8 µM (active)"}]}, {"smiles": "CCOC(=O)C(C)Oc1ccc(OCc2ccccc2)cc1", "note": "(stereo not given)", "values": [{"measurement": "IC50", "setting": "cells", "value": "6.32 µM (active)"}]}, {"smiles": "COc1ccc2c3c([nH]c2c1)[C@@H](CO)N(Cc1cccc(Cl)c1)CC31CCN(C(C)=O)CC1", "values": [{"measurement": "AC50", "setting": "[4]", "value": "3.22 µM (active)"}]}, {"smiles": "COc1ccc(C(=O)Nc2nc(-c3ccccn3)cs2)cc1S(=O)(=O)N1CCOCC1", "values": [{"measurement": "IC50", "setting": "H9c2", "value": "10.9 µM (active)"}]}, {"smiles": "COc1cccc(C(c2nnnn2Cc2ccccc2)N2CCN(C3CCCC3)CC2)c1OC", "note": "(stereo not given)", "values": [{"measurement": "IC50", "setting": "H9c2", "value": "> 79 µM (inactive)"}]}, {"smiles": "Cc1cc(C)nc(NC(=O)c2ccc(COc3ccccc3Cl)cc2)c1", "values": [{"measurement": "AC50", "setting": "[2]", "value": "0.245 µM (active)"}]}, {"smiles": "COc1ccc(-c2c(C#N)c(SCC(=O)c3cc4ccccc4oc3=O)nc(C)c2C(=O)Nc2ccccc2)cc1", "values": [{"measurement": "CC50", "setting": "[5]", "value": "5.32 µM (active)"}, {"measurement": "AC50", "setting": "[2]", "value": "0.738 µM (active)"}]}, {"smiles": "CC1Cc2ccccc2C(=O)N1", "note": "(stereo not given)", "values": [{"measurement": "IC50", "setting": "H9c2", "value": "12.5 µM (active)"}]}, {"smiles": "O=S(=O)(CCBr)CCBr", "values": [{"measurement": "GI50", "setting": "P388/ADR", "value": "2.84 µM (inactive)"}, {"measurement": "GI50", "setting": "SN12K1", "value": "6.59 µM (inactive)"}, {"measurement": "GI50", "setting": "P388", "value": "2.13 µM (inactive)"}]}, {"smiles": "O=C(COc1cccc2c1CCNC2=O)NC1CCCCC1", "values": [{"measurement": "IC50", "setting": "H9c2", "value": "> 79 µM (inactive)"}]}]}
